Test results published in PMC7065950 (Nature biotechnology, 2020).

What was measured:
Format in all cases: in vivo, C57BL/6 mice
B16-F10 tumor cells = test: B16-F10 therapeutic tumor model; settings: B16-F10 SC implanted
[1] = tested on: antigen-specific CD4 T cells; test: CD4 T cell response by intracellular cytokine staining of blood; settings: LP delivered as SNP-7/8a; × = immunogenic
[2] = tested on: antigen-specific CD8 T cells; test: CD8 T cell response by intracellular cytokine staining of blood; settings: LP delivered as SNP-7/8a; × = immunogenic; listed as M07

Sequence	Tumor control, neoantigen as LP + polyIC by SC route (B16-F10 tumor cells; days 1, 8 and 15 with anti-PD-L1 IP)	CD4 response, present study, SNP-7/8a [1]	CD8 response, present study, SNP-7/8a [2]	Tumor control, neoantigen as SNP-7/8a by IV route (B16-F10 tumor cells; with anti-PD-L1 IP)
ELINFKRKRVAAFQKNLIEMSELEIKH [Compound B16-M39]	no efficacy observed			
TAKSVMCTYSPPLDKLFCQLAKTCPVQ [Compound B16-M07]		no significant CD4 T cell response	induced a CD8 T cell response	improved control of tumor growth
